Consider 3 molecules from ChEMBL document CHEMBL1201862, “PubChem BioAssay data set” (2004).

Each structure is given as a SMILES string. Calls of active or inactive are those of the source. Cut-off read from the data, not from the text of the source, for most assays here: actives have a measured IC50 and inactives only a lower limit.

Experiment [1] has as its target T1, SUMO-activating enzyme (Homo sapiens, UniProt Q9UBT2). The experiment in a line: blockers of UBC9-mediated SUMO conjugation – biochemical, AlphaScreen, SUMOylation inhibitor project, confirmation (AID 2018). Type of experiment: functional. Background: Bead proximity is the source of the signal in Alpha formats.
Experiment [2] deals with T1, SUMO-activating enzyme. The experiment in a line: blockers of SAE1/SAE2–UBC9 SUMO transfer – biochemical, HTRF, uHTS, primary screen (AID 2006). Type of experiment: protein-complex assay.
The target of experiment [3] is T2, Replicative DNA helicase DnaB (Mycobacterium tuberculosis, UniProt P9WMR3).
T2 sequence (P9WMR3 whole entry): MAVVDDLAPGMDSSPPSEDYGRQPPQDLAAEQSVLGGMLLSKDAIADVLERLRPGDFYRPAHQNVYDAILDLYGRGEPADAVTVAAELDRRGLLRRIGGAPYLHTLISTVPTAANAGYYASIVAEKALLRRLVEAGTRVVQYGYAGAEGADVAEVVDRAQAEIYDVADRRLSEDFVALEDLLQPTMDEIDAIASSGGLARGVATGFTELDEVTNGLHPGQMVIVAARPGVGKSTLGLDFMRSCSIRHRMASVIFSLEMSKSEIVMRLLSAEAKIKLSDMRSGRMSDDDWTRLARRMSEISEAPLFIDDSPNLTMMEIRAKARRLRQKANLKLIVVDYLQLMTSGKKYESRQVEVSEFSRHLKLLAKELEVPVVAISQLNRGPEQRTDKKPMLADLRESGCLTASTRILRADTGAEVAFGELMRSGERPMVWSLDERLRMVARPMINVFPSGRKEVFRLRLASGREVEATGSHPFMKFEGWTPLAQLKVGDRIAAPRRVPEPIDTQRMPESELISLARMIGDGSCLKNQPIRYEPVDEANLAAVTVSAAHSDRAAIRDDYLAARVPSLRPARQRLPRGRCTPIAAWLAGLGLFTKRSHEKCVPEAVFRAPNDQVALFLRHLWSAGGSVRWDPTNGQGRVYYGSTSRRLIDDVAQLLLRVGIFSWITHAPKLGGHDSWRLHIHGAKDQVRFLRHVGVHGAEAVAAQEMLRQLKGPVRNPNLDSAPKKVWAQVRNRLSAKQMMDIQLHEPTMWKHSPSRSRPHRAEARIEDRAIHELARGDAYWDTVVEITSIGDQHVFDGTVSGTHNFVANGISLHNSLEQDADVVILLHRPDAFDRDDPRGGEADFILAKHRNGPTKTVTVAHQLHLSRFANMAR
In words: DnaB intein splicing inhibitors, dose response, biochemical, cell-free fluorescence (AID 449749). Format: functional.

Experiment [4] has as its target T3, Apoptotic protease-activating factor 1 (Homo sapiens, UniProt O14727).
T3 sequence (O14727 whole entry): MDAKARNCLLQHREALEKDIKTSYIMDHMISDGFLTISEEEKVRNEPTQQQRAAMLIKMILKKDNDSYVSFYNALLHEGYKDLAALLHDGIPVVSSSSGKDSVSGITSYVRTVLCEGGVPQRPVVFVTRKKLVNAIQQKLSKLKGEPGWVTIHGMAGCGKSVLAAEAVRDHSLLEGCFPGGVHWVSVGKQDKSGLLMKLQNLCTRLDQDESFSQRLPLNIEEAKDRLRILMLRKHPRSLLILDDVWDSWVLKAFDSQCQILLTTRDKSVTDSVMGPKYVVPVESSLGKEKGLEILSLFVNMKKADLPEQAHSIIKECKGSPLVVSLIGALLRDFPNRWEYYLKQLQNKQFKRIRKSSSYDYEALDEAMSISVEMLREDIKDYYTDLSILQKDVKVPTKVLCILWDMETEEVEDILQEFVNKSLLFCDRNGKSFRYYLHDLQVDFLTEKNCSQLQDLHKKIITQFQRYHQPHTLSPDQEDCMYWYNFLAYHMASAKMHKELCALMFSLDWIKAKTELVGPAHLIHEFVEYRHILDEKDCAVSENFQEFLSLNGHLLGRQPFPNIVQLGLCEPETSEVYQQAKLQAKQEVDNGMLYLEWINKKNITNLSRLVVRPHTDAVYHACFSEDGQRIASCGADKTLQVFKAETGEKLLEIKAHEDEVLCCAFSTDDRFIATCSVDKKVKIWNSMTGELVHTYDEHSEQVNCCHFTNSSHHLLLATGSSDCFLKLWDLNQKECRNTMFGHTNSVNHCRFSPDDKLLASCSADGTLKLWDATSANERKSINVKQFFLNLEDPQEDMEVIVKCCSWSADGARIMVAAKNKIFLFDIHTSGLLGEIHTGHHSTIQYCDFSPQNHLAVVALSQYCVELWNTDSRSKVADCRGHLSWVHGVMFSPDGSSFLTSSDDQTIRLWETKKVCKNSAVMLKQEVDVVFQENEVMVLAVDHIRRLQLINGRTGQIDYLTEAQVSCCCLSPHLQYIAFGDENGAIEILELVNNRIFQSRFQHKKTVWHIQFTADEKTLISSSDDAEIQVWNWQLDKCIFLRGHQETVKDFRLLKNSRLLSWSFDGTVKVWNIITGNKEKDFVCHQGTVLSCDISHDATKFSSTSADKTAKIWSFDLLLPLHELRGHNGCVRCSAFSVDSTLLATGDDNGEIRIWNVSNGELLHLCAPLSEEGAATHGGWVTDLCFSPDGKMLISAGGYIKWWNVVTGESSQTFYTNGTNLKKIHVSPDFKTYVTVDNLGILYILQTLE
Type of experiment: functional.

T1 sequence (Q9UBE0 whole entry): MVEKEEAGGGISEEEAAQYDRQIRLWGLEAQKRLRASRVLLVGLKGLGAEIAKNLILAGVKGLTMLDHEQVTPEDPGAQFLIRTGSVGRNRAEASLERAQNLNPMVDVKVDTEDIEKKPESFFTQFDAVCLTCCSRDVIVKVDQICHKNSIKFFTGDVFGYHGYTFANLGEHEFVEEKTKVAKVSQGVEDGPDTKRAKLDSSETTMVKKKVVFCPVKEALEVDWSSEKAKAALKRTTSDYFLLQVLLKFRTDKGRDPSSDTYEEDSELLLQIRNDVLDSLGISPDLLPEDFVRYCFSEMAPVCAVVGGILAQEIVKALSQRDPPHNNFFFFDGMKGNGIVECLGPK
T1 sequence (Q9UBT2 whole entry): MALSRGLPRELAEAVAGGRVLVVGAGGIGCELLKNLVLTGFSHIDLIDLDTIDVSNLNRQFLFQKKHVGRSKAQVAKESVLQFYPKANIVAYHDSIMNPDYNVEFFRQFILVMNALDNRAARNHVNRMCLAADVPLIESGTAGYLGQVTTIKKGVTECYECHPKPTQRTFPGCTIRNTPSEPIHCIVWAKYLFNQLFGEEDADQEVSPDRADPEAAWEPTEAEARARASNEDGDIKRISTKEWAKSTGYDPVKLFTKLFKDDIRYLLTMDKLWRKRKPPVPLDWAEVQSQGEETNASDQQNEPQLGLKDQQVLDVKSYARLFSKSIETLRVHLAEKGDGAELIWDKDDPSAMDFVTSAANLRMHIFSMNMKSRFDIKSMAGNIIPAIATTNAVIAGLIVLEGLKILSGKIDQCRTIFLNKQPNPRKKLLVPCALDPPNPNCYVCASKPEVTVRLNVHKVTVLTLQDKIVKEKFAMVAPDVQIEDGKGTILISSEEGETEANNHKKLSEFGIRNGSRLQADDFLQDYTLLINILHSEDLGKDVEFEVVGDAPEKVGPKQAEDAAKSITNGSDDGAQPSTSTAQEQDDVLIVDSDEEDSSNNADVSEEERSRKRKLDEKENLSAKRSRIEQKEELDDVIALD

For orientation: IC50 means the concentration that inhibits the measured activity by half. What is called AC50 is the midpoint of the concentration-response curve, whichever way the signal moves. Regarding `Nc1c(N2CCCC2)cc(Cl)c2nonc12`, the 50% inhibitory concentration (IC50) on SUMO-activating enzyme [1] is 2.16 µM (active); on SUMO-activating enzyme [2] it was 5.6 µM (active); in experiment [4], 11 µM (active). The AC50 in experiment [3] was 8.9 µM (active).
In the case of `O=C(NNc1cc(N2CCOCC2)nc(N2CCOCC2)n1)c1ccc([N+](=O)[O-])cc1`, the IC50 at SUMO-activating enzyme [1] is 6.57 µM (active); at SUMO-activating enzyme [2] it was 15.8 µM (active); in experiment [4], 13.6 µM (active).
As for `Oc1ccc(/N=C/c2ccc(OCc3ccccc3)cc2)cc1`, the AC50 in experiment [3] was > 380 µM (inactive).
